{
  "source": "patent US20240285631A1",
  "about": "“METHODS OF TREATING VASCULAR MALFORMATIONS” (priority 2023, published 2024)",
  "key": {"[1]": {"tested_on": "Retinoblastoma protein (Rb)", "assay": "Western Blot of Rb Ser 807/811 phosphorylation in HUVECs", "type": "cell-based, human", "settings": "24 h", "experimental": "FIG. 11B illustrates Western Blot analysis of Rb Ser 807/811 phosphorylation in response to Palbociclib (CDK4/6i) (24 h) in HUVECs.\nPrimary Human Umbilical Vein Endothelial Cells (HUVECs) were purchased from Lonza (C2519AS) and cultured in EGM™2-Bulletkit™ medium (CC-3156 & CC-4176, Lonza). For VEGF-A- or BMP9-induced signaling response in HUVECs, cells (70% confluent) were treated with Palbociclib (3 mg/ml, CDK4/6i) for 12 h in EGM-2 medium prior to starvation overnight in EMB-2 media (CC-3162 Lonza) supplemented with 0.1% FBS and Palbociclib (3 mg/ml). Cells were stimulated with either VEGF-A (25 ng/ml for 15 min) or BMP9 (1 ng/ml for 2 h) and harvested for Western Blot analysis.\nCells were lysed in RIPA buffer (Abcam, ab206996) and equal amounts of proteins were separated on 4-15% gradient Criterion precast gels (Bio-Rad 567-1084). Proteins were then transferred onto nitrocellulose membranes (Bio-Rad). Western Blots were developed with chemiluminescence HRP substrate (Radiance plus, Azure Biosystems AC2103) on a digital image analyzer, Azure Imager c300."}, "[2]": {"tested_on": "retinal arteries of anti-BMP9/10-treated animals", "assay": "Arteriovenous identity immunostaining (JAGGED1, aSMA, ENDOMUCIN) of retinal flat-mounts, BMP9/10 Abs model", "type": "in vivo, mouse", "settings": "P7", "from_the_text": "FIG. 12A illustrates the timeline used for BMP9/10 Abs and CDK4/6i treatments in C57bl/6 pups. FIGS. 12B-F JAGGED1 (green) and IB4 (white) in (FIG. 12B), aSMA (green) and IB4 (white) staining in (FIG. 12D) and ENDOMUCIN (green) and IB4 (white) in (FIG. 12F) of retinal flat-mounts from control, BMP9/10 Abs-treated, BMP9/10 Abs- and CDK4/6i-treated P7 C57bl/6 animals. (A: artery; V: vein; white arrow heads: AVMs). Quantification of JAGGED1 fluorescence intensity in retinal arterial ECs (FIG. 12C), of aSMA arterial coverage (FIG. 12E) and ENDOMUCIN in retinal arteries (FIG. 12G) (N=4 animals/group, 10 to 14 region of interest analyzed/group. Data are mean±SEM, one-way ANOVA with Holm-Sidak's multiple comparison test, ns p>0.05; ***p<0.01). Scale bars: […].\nFinally, we assessed the effects of Palbociclib treatment on arteriovenous identity in anti-BMP9/10-treated animals following the dosing protocol shown in FIG. 12A. […] Finally, ENDOMUCIN, which is enriched in veins and capillaries in control retinas, was ectopically expressed in arteries and AV shunts in the retinal vasculature of anti-BMP9/10-treated animals, compared to controls (FIGS. 12F and 12G).\nEyes from P7 pups were pre-fixed in 4% PFA for 20 min at room temperature (RT). The retinas were dissected out and permeabilized for 30 min at RT in 0.5% Triton X-100 and then incubated with antibodies in retina buffer (1% FBS, 3% BSA and 0.5% Triton X-100 in PBS1x) overnight at 4° C. Retinas were washed with PBS1X and incubated with secondary antibodies in retina buffer for 2 h at RT. Retinas were washed with PBS1X, mounted with DAKO mounting medium (DAKO) and imaged using confocal microscopy (LEICA SP8 and LASX software). Quantification of vascular progression, density, AVM numbers and vessel diameters in the retinal vasculature were performed with Image J software."}, "[3]": {"tested_on": "brain vascular anomalies in adult Alk1 mutant animals", "assay": "Brain vasculature of adult Alk1 mutant animals (HHT model)", "type": "in vivo, mouse", "settings": "3 doses 120 mg/kg oral gavage at day 7, 9 and 11 after tamoxifen, 3 weeks after induction", "from_the_text": "Euthanized animals have been perfused with colored reagent to visualize the blood vessels."}, "BMP9 signaling": {"tested_on": "BMP9 signaling", "assay": "Western Blot of BMP9-induced signaling in HUVECs", "type": "cell-based, human", "settings": "Palbociclib pre-treatment", "method": "(§1) FIG. 8A illustrates Western Blot analysis of the phosphorylation of the indicated proteins in response to VEGF-A (1.5 nM) in control vs. CDK4/6i treated HUVECs. FIG. 8B illustrates Western Blot analysis of the phosphorylation of the indicated proteins in response to BMP9 (10 ng/ml) in control vs. CDK4/6i-treated HUVECs. FIG. 8C illustrates quantification of phosphorylation normalized to total protein levels. (N=5 independent experiments, Data are mean±SEM, Mann-Whitney U test: *p<0.05). […] FIG. 8E illustrates ENDOGLIN (green) and IB4 (white) staining of retinal flat-mounts from P5 Alk1^fl/fl, Alk1^fl/fl treated with CDK4/6i, Alk1EC^iKO, and Alk1EC^iKO treated with CDK4/6i animals (A: Artery; V: Vein). FIG. 8F illustrates quantification of fluorescence intensity of ENDOGLIN staining in (FIG. 8E) retinal venous vessels of the indicated animals (N=4 retinas per group. Data are mean±SEM, one-way ANOVA with Tukey's multiple comparison test: *p<0.05; ns p>0.05). FIG. 8G illustrates timeline used for Tx injection, and CDK4/6i and FLT1 blocking antibody treatment of Alk1EC^iKO pups. […]\n(§2) Next, we treated HUVECs with Alk1 siRNA to silence Alk1 and test the VEGF-A-induced response, with or without Palbociclib treatment, using pAKT activation as a readout."}, "VEGF-A signaling": {"tested_on": "VEGF-A signaling", "assay": "Western Blot of VEGF-A-induced signaling in HUVECs", "type": "cell-based, human", "settings": "Palbociclib pre-treatment 24 h, 15-minute VEGF-A stimulation", "method": "as §1, §2"}, "HUVECs": {"tested_on": "HUVECs", "assay": "Agilent Seahorse mitochondrial stress test in HUVECs", "type": "cell-based, human", "design": "dose or concentration left out as unconfirmed", "settings": "HUVECs pretreated with Palbociclib, vs control cells", "text": "FIG. 4C illustrates representative traces of oxygen consumption rate (OCR) measured by Seahorse assay of control vs. CDK4/6i-treated HUVECs in response to oligomycin (ATP synthase inhibitor), BAM15 (mitochondrial uncoupler) and Antimycin A/Rotenone (mitochondrial respiratory chain complex III and I inhibitors) (N=6 independent experiments, Data are mean±SEM **p≤0.01, ns p>0.05). Two-way ANOVA for independent measures with Bonferonni's correction for statistical analysis. p<0.05 was considered statistically significant. The normality and homogeneity of variances assumptions were tested using Shapiro-Wilk test (p>0.05) and Mauchly's test of sphericity respectively. Quantification of mitochondrial activity expressed as basal OCR (FIG. 4D) and respiratory capacity (FIG. 4E) in control vs. CDK4/6i-treated HUVECs. […]\nHUVECs (70% confluent) were treated with Palbociclib (3 mg/ml) for 12 h in EGM™2-Bulletkit™ medium (CC-3156 & CC-4176, Lonza) prior to seeding onto a Seahorse 24-well tissue culture plate (Agilent Technologies) in EMB-2 media (CC-3162 Lonza) supplemented with 0.1% FBS and Palbociclib (3 mg/ml). […] Oxygen consumption rate (OCR) was measured using a Seahorse XF24 Flux Analyzer (Agilent Technologies). […] Basal respiration was calculated by subtracting the average of the first three measurements by the average of the post-Antimycin A & Rotenone measurements. […]"}, "[4]": {"tested_on": "AVMs induced by BMP9/10 blocking antibodies", "assay": "Retinal vasculature analysis in BMP9/10 blocking antibody mouse model of HHT", "type": "in vivo", "settings": "BMP9/10 Abs P2 and P4"}},
  "note": "Entries after “also recorded” stand apart in the source; their conditions may differ.",
  "data": [
    {"smiles": "CC(=O)c1c(C)c2cnc(Nc3ccc(N4CCNCC4)cn3)nc2n(C2CCCC2)c1=O", "note": "[Palbociclib, 6-acetyl-8-cyclopentyl-5-methyl-2-[5-(1-piperazinyl)pyridine-2-ylamino]pyrido[2,3-d]pyrimidin-7(8H)-one]", "values": [
      {"measurement": "Rb phosphorylation", "setting": "[1]", "value": "induced hypo-phosphorylation of the Retinoblastoma protein (Rb)"},
      {"measurement": "JAG1 protein expression in retinal arterial ECs", "setting": "[2]; BMP9/10 Abs + CDK4/6i vs BMP9/10 Abs only", "value": "increased in arterial ECs"},
      {"measurement": "ectopic arterial expression of ENDOMUCIN", "setting": "[2]; BMP9/10 Abs + CDK4/6i", "value": "did not prevent the arterial expression of ENDOMUCIN"},
      {"measurement": "smooth muscle cell (aSMA) coverage of retinal arteries", "setting": "[2]; BMP9/10 Abs + CDK4/6i", "value": "prevented the loss of SMC coverage on arteries"},
      {"measurement": "brain vascular anomalies in adult Alk1 mutant animals", "setting": "[3]", "value": "regressed anomalies observed in the brain vasculature; also recorded: regressed brain vascular anomalies"},
      {"measurement": "SMAD1/5/8 phosphorylation in response to BMP9", "setting": "BMP9 signaling", "value": "enhanced SMAD1/5/8 phosphorylation"},
      {"measurement": "pAKT activation in response to VEGF-A", "setting": "VEGF-A signaling", "value": "significantly decreased"},
      {"measurement": "pERK1/2 activation in response to VEGF-A", "setting": "VEGF-A signaling", "value": "significantly decreased"},
      {"measurement": "mitochondrial basal respiration (basal OCR)", "setting": "HUVECs", "value": "significantly lower"},
      {"measurement": "respiratory capacity (OCR)", "setting": "HUVECs", "value": "significantly lower"},
      {"measurement": "arterial vessel diameter", "setting": "[4]; CDK4/6i P4-P6, P7", "value": "not arterial vessel diameters"},
      {"measurement": "retinal vascular density", "setting": "[4]; CDK4/6i P4-P6, P7", "value": "less hyperdense retinal vascular plexi"},
      {"measurement": "retinal vascular progression", "setting": "[4]; CDK4/6i P4-P6, P7", "value": "normalized retinal vascular progression"},
      {"measurement": "venous vessel diameter", "setting": "[4]; CDK4/6i P4-P6, P7", "value": "normalized"},
      {"measurement": "AV shunt number per retina", "setting": "[4]; CDK4/6i oral gavage 120 mg/kg/d P4, P5, P6, retinas at P7, vs BMP9/10 Abs only", "value": "fewer AV shunts"}
    ]}
  ]
}
